tested on: thrombin-induced coagulation of platelet rich plasma; test: Antithrombin activity on PRP, Hartert's thromboelastograph; assay type: in vivo, New Zealand rabbits; conditions: Oryctolagus cuniculus, Platelet, ip, percent decrease of index ma/[r+k] vs before treatment; 20 mg/kg intraperitoneal, rabbits
Protocol: Determination of the antithrombin activity
The antithrombin activity on the PRP (platelet rich plasma) obtained following the above described method was assessed by Hartert's thromboelastograph (Hellige model). The coagulation was induced by adding to 0.25 ml of plasma 0.06 ml of a thrombin solution (Roche Topostasin® per os) at 60 units*, pH 7.4**. The antithrombin activity was assessed in terms of a percent decrease of the index (ma/[r+k]) which was calculated from the thromboelastograph diagram, wherein r is the reaction time, k is the speed of the coagulum formation and ma is the maximum spread of the tong, after an intraperitoneal treatment with a dose of 20 mg/kg of each compound under examination, referred to the same index obtained before the treatment (control).
(§1) In tables I and II are further indicated for each compound the method of preparation; the melting point PF in °C; the platelet antiaggregant activity (AAP) expressed in terms of DI50 in mg/kg, referred to ADP and thrombin respectively; the antithrombin activity (AT) in %; the anticoagulant activity (AC) in %; the fibrinolytic activity (FL) in %; the acute toxicity (LD50) in mice, intraperitoneally, in mg/kg, as previously defined.

Row | SMILES | inhibition in vivo at 20 mg/kg [%]
1 | CC=CCOc1ccc(C(=O)NCc2cccnc2)cc1C(=O)NCc1cccnc1 [Example 11] | 52.3
2 | COc1cc(C(=O)NCc2cccnc2)cc(C(=O)NCc2cccnc2)c1OC1CC1 [Example 18] | 33.4
3 | CC(C)(C)COc1ccc(C(=O)NCc2cccnc2)cc1C(=O)NCc1cccnc1 [Example 34] | 29.7
4 | CCCCN(Cc1cccnc1)C(=O)c1ccc(OC)c(C(=O)N(CCCC)Cc2cccnc2)c1 [Example 42] | 28.7
5 | CCCCCOc1c(Cl)cc(C(=O)NCc2cccnc2)cc1C(=O)NCc1cccnc1 [Example 24] | 24.4

tested on: platelet aggregation induced by thrombin; test: Platelet aggregation inhibitory activity in vivo (Born aggregometer), thrombin-induced; design: species or system New Zealand rabbits; conditions: Oryctolagus cuniculus, Platelet, ip, dose for 50% inhibition of thrombin-induced aggregation curve; rabbits, intraperitoneal, blood 2, 4 and 6 hours after injection; read-out: platelet antiaggregant activity (AAP), DI50, Thrombin
Protocol: (§2) Determination of the platelet aggregation inhibitory activity in vivo
(§3) The activity of the above described compounds as platelet antiaggregant was tested in vivo on rabbits, by the Born aggregometer. The inhibition of the aggregation curve induced by ADP and thrombin was assessed with different drug concentrations according to the platelet reactivity. New Zealand rabbits which had been held fasting for 12 hours with water ad libitum, were anaesthetized with Nembutal in a dose of 35 mg/kg intramuscolarly. The blood was withdrawn from the carotidal arthery, before (control) and 2, 4, and 6 hours after the intraperitoneal injection of the compounds under examination (at the dose indicated below). The blood samples were taken up in a 3.8% aqueous solution of sodium citrate in a ratio 10:1 and thereupon centrifuged at 1500 r.p.m. for 10 minutes, for obtaining a PRP (platelet rich plasma). A portion of such a plasma was thereupon centrifuged at 8000 r.p.m. for 10 minutes, for obtaining a PPP (platelet lean plasma) which was used for zeroing the measuring apparatus.
(§4) From the results of said experiments, there was determined the dose of each product in mg/kg body weight able to induce a 50% inhibition of the aggregation curve (DI50) after treatment, referred to the curve obtained by the same control plasma before treatment.
as §1

Row | SMILES | ED50 [mg/kg]
6 | CC=CCOc1ccc(C(=O)NCc2cccnc2)cc1C(=O)NCc1cccnc1 [Example 11] | 18.6
7 | COc1cc(C(=O)NCc2cccnc2)cc(C(=O)NCc2cccnc2)c1OC1CC1 [Example 18] | 22
8 | CC(C)(C)COc1ccc(C(=O)NCc2cccnc2)cc1C(=O)NCc1cccnc1 [Example 34] | 27.3
9 | CCCCN(Cc1cccnc1)C(=O)c1ccc(OC)c(C(=O)N(CCCC)Cc2cccnc2)c1 [Example 42] | 47.2
10 | CCCCCOc1c(Cl)cc(C(=O)NCc2cccnc2)cc1C(=O)NCc1cccnc1 [Example 24] | 35.6

tested on: not listed separately; test: Acute toxicity, intraperitoneal; conditions: mouse, in vivo, ip, male Swiss mice, intraperitoneal, 7 days observation; preliminary, by graphic interpolation; read-out: acute toxicity (LD50 / DL50)
Protocol: The acute toxicity limit was determined intraperitoneally on male Swiss mice, weighing 20±2 g, held fasting for 18 hours with water ad libitum.
The animals were maintained under observation for 7 days of treatment, by examining the general symptomatology and noting the death sequency. The preliminary DL50 in mg/kg body weight was calculated by graphic interpolation of the results as obtained.
as §1

Row | SMILES | LD50 at 168 h [mg/kg]
11 | CC=CCOc1ccc(C(=O)NCc2cccnc2)cc1C(=O)NCc1cccnc1 [Example 11] | 178
12 | COc1cc(C(=O)NCc2cccnc2)cc(C(=O)NCc2cccnc2)c1OC1CC1 [Example 18] | 228
13 | CC(C)(C)COc1ccc(C(=O)NCc2cccnc2)cc1C(=O)NCc1cccnc1 [Example 34] | 351
14 | CCCCN(Cc1cccnc1)C(=O)c1ccc(OC)c(C(=O)N(CCCC)Cc2cccnc2)c1 [Example 42] | 623
15 | CCCCCOc1c(Cl)cc(C(=O)NCc2cccnc2)cc1C(=O)NCc1cccnc1 [Example 24] | 371

tested on: platelet aggregation induced by ADP; test: Platelet aggregation inhibitory activity in vivo (Born aggregometer), ADP-induced; design: species or system New Zealand rabbits; conditions: Oryctolagus cuniculus, Platelet, ip, dose for 50% inhibition of ADP-induced aggregation curve; rabbits, intraperitoneal, blood 2, 4 and 6 hours after injection; read-out: platelet antiaggregant activity (AAP), DI50, ADP
Protocol: as §2, §3, §4, §1

Row | SMILES | ED50 [mg/kg]
16 | CC=CCOc1ccc(C(=O)NCc2cccnc2)cc1C(=O)NCc1cccnc1 [Example 11] | 25.3
17 | COc1cc(C(=O)NCc2cccnc2)cc(C(=O)NCc2cccnc2)c1OC1CC1 [Example 18] | 29.4
18 | CC(C)(C)COc1ccc(C(=O)NCc2cccnc2)cc1C(=O)NCc1cccnc1 [Example 34] | 35.6
19 | CCCCN(Cc1cccnc1)C(=O)c1ccc(OC)c(C(=O)N(CCCC)Cc2cccnc2)c1 [Example 42] | 66.4
20 | CCCCCOc1c(Cl)cc(C(=O)NCc2cccnc2)cc1C(=O)NCc1cccnc1 [Example 24] | 41.3

tested on: blood coagulum; test: Fibrinolytic activity, Fearnley method (lysis of blood coagulum in toto); assay type: in vivo; conditions: Oryctolagus cuniculus, ip, 0.5 h, percent decrease of coagulum weight after 30 minutes at 37° C.; 25 mg/kg intraperitoneal, rabbits; read-out: fibrinolytic activity (FL)
Protocol: Determination of the fibrinolytic activity
The determination of the fibrinolytic activity was made following the Fearnley method for the lysis of the blood coagulum in toto.
0.2 ml of blood were withdrawn from the marginal vein of the ear of rabbits treated in the same way as the previously described tests, before and after an intraperitoneal injection of the compounds under test at a dose level of 25 mg/kg for each compound.
The blood samples were placed in test tubes containing 1.7 ml of phosphate buffer at pH 7.4 and 0.1 ml of thrombin (Roche Topostasin ® per os) at 50 units NIH/ml, and maintained in an ice bath. The test tubes were maintained at said temperature for 30 minutes and thereupon were transferred to a temperature controlled water bath at 37° C.
The fibrinolytic activity was determined as a percent decrease of the coagulum weight, measured after incubation for 30 minutes at 37° C.
as §1

Row | SMILES | fibrinolytic activity (percent decrease of coagulum weight) at 25 mg/kg [%]
21 | CC=CCOc1ccc(C(=O)NCc2cccnc2)cc1C(=O)NCc1cccnc1 [Example 11] | 44.2
22 | COc1cc(C(=O)NCc2cccnc2)cc(C(=O)NCc2cccnc2)c1OC1CC1 [Example 18] | 28.6
23 | CC(C)(C)COc1ccc(C(=O)NCc2cccnc2)cc1C(=O)NCc1cccnc1 [Example 34] | 22.7
24 | CCCCN(Cc1cccnc1)C(=O)c1ccc(OC)c(C(=O)N(CCCC)Cc2cccnc2)c1 [Example 42] | 21.7
25 | CCCCCOc1c(Cl)cc(C(=O)NCc2cccnc2)cc1C(=O)NCc1cccnc1 [Example 24] | 6.4

tested on: CaCl2-induced plasma coagulation; test: Anticoagulant activity on PRP, Hartert's thromboelastograph; assay type: in vivo, New Zealand rabbits; conditions: Oryctolagus cuniculus, ip, percent increase of total time for coagulum formation (r+k) vs before treatment; 25 mg/kg intraperitoneal, rabbits; read-out: anticoagulant activity (AC)
Protocol: Determination of the anticoagulant activity
The anticoagulant activity was also assessed on PRP of animals treated as described in the preceding methods, by using again Hartert's thromboelastograph method.
The plasma coagulation was induced by adding to 0.25 ml PRP a 1.29% solution of CaCl2.
The anticoagulant effect was determined as a percent increase of the total time for the coagulum formation (the index r+k can be obtained from the thromboelastograph diagram) in a plasma after treatment, referred to the same index obtained before the treatment (control). Again the dose level was 25 mg/kg for each compound under examination, intraperitoneally.
as §1

Row | SMILES | change in vivo at 25 mg/kg [%]
26 | CC=CCOc1ccc(C(=O)NCc2cccnc2)cc1C(=O)NCc1cccnc1 [Example 11] | 13.5
27 | COc1cc(C(=O)NCc2cccnc2)cc(C(=O)NCc2cccnc2)c1OC1CC1 [Example 18] | 20.1
28 | CC(C)(C)COc1ccc(C(=O)NCc2cccnc2)cc1C(=O)NCc1cccnc1 [Example 34] | 13.6
29 | CCCCN(Cc1cccnc1)C(=O)c1ccc(OC)c(C(=O)N(CCCC)Cc2cccnc2)c1 [Example 42] | 14.5
30 | CCCCCOc1c(Cl)cc(C(=O)NCc2cccnc2)cc1C(=O)NCc1cccnc1 [Example 24] | 16

From patent US4294833A, “Substituted 4-hydroxy-isophthalic acid picolylamides having a pharmaceutical activity in thromboembolic disorders” (Societa Italo-Britannica, priority 1977, dated 1981)
